In PMC9154192 (PLoS Biology, 2022):
In brackets after ≈: the same amount, converted by molar mass. Several values for one entry are separate records, joined by “and”; a condition that tells them apart may be missing. Identical values can stand only once. Like-named read-outs stand apart in the source and are kept apart here.

What was measured:
[1] = test system: M. phlei; experiment: microbe, parasite or virus in culture; assay type: cell-based, Mycobacterium phlei; details: Mycolicibacterium phlei
[2] = test system: M. neoaurum; experiment: microbe, parasite or virus in culture; assay type: cell-based, Mycobacterium neoaurum; details: Mycolicibacterium neoaurum
[3] = test system: Cryptococcus neoformans; experiment: Broth dilution MIC (CLSI); assay type: cell-based; details: read-out: MIC
[4] = test system: Shigella dysenteriae; experiment: Broth dilution MIC (CLSI); assay type: cell-based; details: read-out: MIC
[5] = test system: Acinetobacter baumannii; experiment: Broth dilution MIC (CLSI); assay type: cell-based; details: read-out: MIC
[6] = test system: Staphylococcus aureus, MRSA; experiment: Broth dilution MIC (CLSI); assay type: cell-based; details: read-out: MIC
[7] = test system: Salmonella Paratyphi A; experiment: Broth dilution MIC (CLSI); assay type: cell-based; details: Salmonella enterica; Salmonella Paratyphi A; read-out: MIC
[8] = test system: Escherichia coli O157; experiment: Broth dilution MIC (CLSI); assay type: cell-based; details: read-out: MIC
[9] = test system: Streptococcus pneumoniae; experiment: Broth dilution MIC (CLSI); assay type: cell-based; details: read-out: MIC
[10] = test system: Shigella sonnei; experiment: Broth dilution MIC (CLSI); assay type: cell-based; details: read-out: MIC
[11] = test system: Pseudomonas aeruginosa; experiment: Broth dilution MIC (CLSI); assay type: cell-based; details: read-out: MIC
[12] = test system: Enterobacter aerogenes; experiment: Broth dilution MIC (CLSI); assay type: cell-based; details: Klebsiella aerogenes; Enterobacter aerogenes; read-out: MIC
[13] = test system: Saccharomyces cerevisiae; experiment: Broth dilution MIC (CLSI); assay type: cell-based; details: read-out: MIC
[14] = test system: Citrobacter freundii; experiment: Broth dilution MIC (CLSI); assay type: cell-based; details: read-out: MIC
[15] = test system: M. bovis; experiment: microbe, parasite or virus in culture; assay type: cell-based; details: Mycobacterium tuberculosis variant bovis
[16] = test system: M. tuberculosis H37Rv; experiment: Luminescence-based microbial cell viability assay; design: species or system Mycobacterium tuberculosis; details: for RLU/50ul (replicates1-3), single values / RLU/ml (×100) / RLU/50ul (average): Fig 2C
[17] = test system: M. tuberculosis H37Rv; assay type: in vivo, BALB/c mice; design: Efficacy in BALB/C mouse model of pulmonary tuberculosis, Average / Efficacy in BALB/C mouse model of pulmonary tuberculosis, values of mice 1-6: unit not given here; details: Fig 4C
[18] = test system: M. phocaicum; experiment: microbe, parasite or virus in culture; assay type: cell-based, Mycobacterium phocaicum; details: Mycolicibacterium phocaicum
[19] = test system: M. tuberculosis H37Rv; assay type: cell-based, Mycobacterium tuberculosis; details: for CFU/ml (average) / CFU/ml, single values / Intracellular M. tuberculosis, % (Drug Free = 100.0): Fig 3A, H37Rv
[20] = test system: XDR M. tuberculosis; assay type: cell-based, Mycobacterium tuberculosis
[21] = in vitro; assay type: cell-based, murine; details: mouse
Procedure, shortened: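 MTT and WST-1 viability read-outs; cytotoxicity testing per earlier published protocols.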

[22] = test system: XDR M. tuberculosis (KMRC 00203–00197); assay type: cell-based, Mycobacterium tuberculosis; details: for log reduction (CFU): 7 days
[23] = in vitro; assay type: cell-based; details: human
Description: A549 human pulmonary epithelial cells (KCLB 10185), human embryonic kidney (HEK) 293 cells (KCLB 21573), human THP-1 leukemia cells (KCLB 40202), human neuroblastoma SH-SY5Y cells (KCLB 22266), Murine Raw 264.7 macrophages (KCLB 40071), and L929 murine fibroblasts (KCLB 10001) were purchased from the KCLB (Seoul, Korea). Cytotoxicity testing was performed using the MTT assay and the WST-1 cell viability assay as previously described.

[24] = test system: M. tuberculosis H37Ra; experiment: microbe, parasite or virus in culture; assay type: cell-based, Mycobacterium tuberculosis; details: Mycobacterium tuberculosis, H37RA

COC(=O)[C@@H]1CCC(=O)N1Cc1cc2ccc(OC)cc2c2cc(OC)c(OC)cc12 [PP1S, (S)-N-[(2,3,6-Trimethoxy-10-phenanthryl)methyl]-pyroglutamic acid methyl ester]
MIC [1]: > 100 mg/L | MIC [2]: > 100 mg/L | MIC [3]: > 100 mg/L | MIC [4]: > 100 mg/L | MIC [5]: > 100 mg/L | MIC [6]: > 100 mg/L | MIC [7]: > 100 mg/L | MIC [8]: > 100 mg/L | MIC [9]: > 100 mg/L | MIC [10]: > 100 mg/L | MIC [11]: > 100 mg/L | MIC [12]: > 100 mg/L | MIC [13]: > 100 mg/L | MIC [14]: > 100 mg/L | MIC [15]: 1.6 mg/L (≈ 3.78 µM) | RLU/50ul (replicates1-3), single values ([16]; drug conc. 0.39): 1910 RLU/50ul and 1870 RLU/50ul and 3370 RLU/50ul and 3410 RLU/50ul and 3790 RLU/50ul and 1810 RLU/50ul and 1790 RLU/50ul and 1970 RLU/50ul and 1850 RLU/50ul | RLU/ml (×100) ([16]; drug conc. 0.39): 483.8 RLU/ml (×100) | RLU/50ul (average) ([16]; drug conc. 0.39, average of each replicate set): 3523 RLU/50ul and 1857 RLU/50ul and 1877 RLU/50ul | RLU/50ul (replicates1-3), single values ([16]; drug conc. 0.78): 1380 RLU/50ul and 1580 RLU/50ul and 2750 RLU/50ul and 2760 RLU/50ul and 3450 RLU/50ul and 2020 RLU/50ul and 2180 RLU/50ul and 1970 RLU/50ul and 1410 RLU/50ul | RLU/ml (×100) ([16]; drug conc. 0.78): 433.3 RLU/ml (×100) | RLU/50ul (average) ([16]; drug conc. 0.78, average of each replicate set): 2987 RLU/50ul and 2057 RLU/50ul and 1457 RLU/50ul | RLU/50ul (replicates1-3), single values ([16]; drug conc. 1.56): 750 RLU/50ul and 850 RLU/50ul and 1460 RLU/50ul and 1290 RLU/50ul and 960 RLU/50ul and 1050 RLU/50ul and 1110 RLU/50ul and 1070 RLU/50ul and 790 RLU/50ul | RLU/ml (×100) ([16]; drug conc. 1.56): 207.3 RLU/ml (×100) | RLU/50ul (average) ([16]; drug conc. 1.56, average of each replicate set): 1237 RLU/50ul and 1077 RLU/50ul and 797 RLU/50ul | concentration with significant antitubercular effect ([16]; luminescence-based assay): 1.56 µg/mL | Efficacy in BALB/C mouse model of pulmonary tuberculosis, Average ([17]; group dose 30, 6 mice): 2683333 | Efficacy in BALB/C mouse model of pulmonary tuberculosis, Average ([17]; group dose 100, 6 mice): 1028333 | MIC [18]: > 100 mg/L | CFU/ml (average) ([19]; drug conc. 1.6): 26333 CFU/ml | CFU/ml, single values ([19]; drug conc. 1.6): 26400 CFU/ml and 26700 CFU/ml and 25900 CFU/ml | Intracellular M. tuberculosis, % (Drug Free = 100.0) ([19]; drug conc. 1.6): 78.3% | CFU/ml (average) ([19]; drug conc. 3.1): 21190 CFU/ml | CFU/ml, single values ([19]; drug conc. 3.1): 20900 CFU/ml and 22200 CFU/ml and 20470 CFU/ml | Intracellular M. tuberculosis, % (Drug Free = 100.0) ([19]; drug conc. 3.1): 63.0% | CFU/ml (average) ([19]; drug conc. 6.3): 15203 CFU/ml | CFU/ml, single values ([19]; drug conc. 6.3): 15200 CFU/ml and 14100 CFU/ml and 16310 CFU/ml | Intracellular M. tuberculosis, % (Drug Free = 100.0) ([19]; drug conc. 6.3): 45.2% | CFU/ml (average) ([19]; drug conc. 12.5): 8003 CFU/ml | CFU/ml, single values ([19]; drug conc. 12.5): 8000 CFU/ml and 7500 CFU/ml and 8510 CFU/ml | Intracellular M. tuberculosis, % (Drug Free = 100.0) ([19]; drug conc. 12.5): 23.8% | CFU/ml (average) ([19]; drug conc. 25): 707 CFU/ml | Intracellular M. tuberculosis, % (Drug Free = 100.0) ([19]; drug conc. 25): 2.1% | growth of M. tuberculosis in macrophages (CFU) ([19]; H37Rv in Raw 264.7 cells, 3 days, concentration-dependent): significantly inhibited the growth | RFU/200 μl (replicates1-3), single values [20]: 28550 RFU/200 μl (2×) and 31600 RFU/200 μl and 31980 RFU/200 μl and 30880 RFU/200 μl and 29180 RFU/200 μl and 29520 RFU/200 μl and 28730 RFU/200 μl and 28570 RFU/200 μl and 47010 RFU/200 μl and 47100 RFU/200 μl and 48600 RFU/200 μl and 48210 RFU/200 μl and 50840 RFU/200 μl and 43460 RFU/200 μl and 43510 RFU/200 μl and 43540 RFU/200 μl and 47050 RFU/200 μl and 50580 RFU/200 μl and 50770 RFU/200 μl and 53600 RFU/200 μl and 53640 RFU/200 μl and 54810 RFU/200 μl and 45790 RFU/200 μl and 45690 RFU/200 μl and 45900 RFU/200 μl and 50680 RFU/200 μl | RFU/ml (×104) [20]: 14.9 RFU/ml (×104) and 23.3 RFU/ml (×104) and 25.1 RFU/ml (×104) | concentration with significant antitubercular effect [20]: 1.56 µg/mL and 0.78 µg/mL | CC50 ([21]; L929): > 500 mg/L | CC50 ([21]; L929, MTT assay (Table S1)): > 100 mg/L | CC50 ([21]; RAW, MTT assay (Table S1)): > 100 mg/L | CC50 ([21]; Raw264.7): > 500 mg/L | CFU (replicates1-3), single values [22]: 9800 CFU and 11000 CFU and 9100 CFU and 4200 CFU and 13900 CFU and 20700 CFU and 20100 CFU and 12600 CFU and 16500 CFU and 28000 CFU and 112000 CFU and 92700 CFU and 90100 CFU and 36800 CFU and 38700 CFU and 24400 CFU and 24700 CFU and 22500 CFU | log reduction (CFU) ([22]; at 0.8 μg/ml): 0.8 | log reduction (CFU) ([22]; at 1.6 μg/ml): 1.3 | CC50 ([23]; A549): > 500 mg/L | CC50 ([23]; HEK-293): > 500 mg/L | CC50 ([23]; SH-SY5Y): > 500 mg/L | CC50 ([23]; THP-1): > 500 mg/L | MIC [24]: 1.6 mg/L (≈ 3.78 µM)
